In patent US20190046490A1, “METHODS OF TREATING LACTOSE INTOLERANCE” (Nogra Pharma Limited, priority 2016, published 2019):
Values joined by “and” are separate entries in the source; they are usually repeats but may differ in a detail not shown here. Identical values can stand only once. “Also recorded” adds a separate entry of the source.

What was measured:
Caco-2 cells = test: Glucose uptake assay (2-DG6P) in Caco-2 cells; format: cell-based, human; conditions: 1 mM, 24 h
Protocol: Glucose uptake was evaluated by using the glucose uptake colorimetric assay kit (Sigma-Aldrich) according to the manufacturer's instructions. Briefly, Caco-2 cells were seeded into a 96-well plate at a density of 30,000 cells per well. Cells were serum deprived for 16 hours prior to stimulation in order to synchronize the cells. Cells were treated with GED (1 mM) or pioglitazone (1 μM) for 24 h. Cells were then washed 3 times with PBS and were glucose-starved by incubating with 100 μl of KRPH buffer (Krebs-Ringer-Phosphate-HEPES (KRPH) Buffer—20 mM HEPES, 5 mM KH2PO4, 1 mM MgSO4, 1 mM CaCl2, 136 mM NaCl, and 4.7 mM KCl, pH 7.4) containing 2% BSA for 40 minutes. 10 μl of 2-deoxyglucose (2-DG; 10 mM) was then added and incubation was continued for 20 minutes. 2-DG is taken up by the cells and phosphorylated by hexokinase to 2-DG6P, which cannot be further metabolized and accumulates in cells. Following incubation, cells were washed 3 times with PBS and lysed with 80 μl of the extraction buffer provided. The amount of 2-DG6P (which is directly proportional to glucose uptake by the cells) was determined by a colorimetric detection assay according to the manufacturer's protocol.

LCT gene = test: Transcriptome microarray analysis of LCT mRNA expression in Caco-2 cells treated with PPARγ modulators; format: cell-based, human; conditions: vs unstimulated cells
Protocol: (§1) Caco-2 (colonic adenocarcinoma) cells were grown in Dulbecco's Modified Eagle's Medium (DMEM, Invitrogen, Life Technologies, Cergy-Pontoise, France) supplemented with 20% foetal calf serum (FCS, Dutscher, Brumath, France), 1% penicillin-streptomycin (5 ml/l) (Invitrogen, Life technologies) and 1% non-essential amino acids (5 ml/l) (Invitrogen, Life technologies). All cell lines were cultured as confluent monolayers at 37° C. in a controlled, 5% CO2 atmosphere.
(§2) For cell stimulations, 1×10^6 cells per well were seeded in 6-well plates. Cells were serum deprived for 16 hours prior to stimulation in order to synchronize the cells. Cells were treated with GED (Nogra Pharma Ltd, Ireland), pioglitazone (1 μM, Sigma-Aldrich) or CLA (various concentrations, Sigma-Aldrich). When necessary, the DMSO vehicle (Sigma-Aldrich) was used as control. After 24 hours of stimulation, cells were washed three times with sterile PBS before RNA extraction. Cell stimulations were performed in 4 replicates for microarray analysis and in 3, 4 or 6 replicates for other stimulations.
(§3) Cells were lysed with lysis buffer (RA1, Macherey-Nagel) containing 1% β-mercaptoethanol. Total RNA was extracted with a Nucleospin RNA kit (Macherey-Nagel, Hoerdt, France). After RNAse inactivation, total RNA was cleaned of genomic DNA traces by DNAse treatment and eluted in RNAse-free, DEPC-water. The purity of the RNA was evaluated by UV spectroscopy on a Nanodrop system (Nyxor Biotech, Paris, France) from 220 to 350 nm. Before microarray experiments, RNAs were also profiled on an Agilent 2100 bioanalyzer. One μg of total RNA with a minimum concentration of 50 ng/μl was used in the microarray and qRT-PCR analysis.
Dual-colour gene expression microarrays were used to compare the cRNA from the samples. 44,000 genes were screened. The RNAs from the samples were first reverse-transcribed into cDNA (Affinity-Script RT, Agilent), which were then used as the substrate for the synthesis and amplification of cRNA by T7 RNA polymerase in the presence of cyanine 3-CTP for the CTL sample (green fluorescence) and cyanine 5-CTP for the PPAR-γ y modulator sample (red fluorescence). The two-labelled cRNAs were mixed, hybridized on the same array (G4851A Agilent 8×44K) and then scanned (with an Agilent G2505B scanner). Fluorescence was visualized after laser excitation and the relative intensities of the two fluorophores were expressed as a ratio, in order to yield the over- or under-expression status of each gene (using GeneSpring software (Agilent)). This analysis was performed for each PPAR-γ modulator.

LCT mRNA = test: Quantitative PCR of LCT mRNA expression in Caco-2 cells; format: cell-based, human
Protocol: as §1, §2, §3
Expression of genes of interest was quantified by quantitative PCR (qPCR) of corresponding reverse transcribed mRNA. One μg of total RNA was reverse-transcribed into cDNA using the High Capacity cDNA Archive kit (Applied Biosystems). Amplification was performed using an ABI PRISM 7000 sequence detection system (Applied Biosystem) using Power SYBR® Green PCR master Mix (Applied Biosystem). Primer pairs for each human transcript were chosen with qPrimer depot software (at primerdepot.nci.nih.gov.). Quantification of qPCR signals was performed using ΔCt relative quantification method using GAPDH as a reference gene for human and rat samples and β-Actin for mouse samples. Values were represented in terms of relative quantity of mRNA level variation or fold increase compared to control conditions.

[1] = test system: weaned rats fed with a lactose-enriched diet; test: Symptoms associated with lactose intolerance in weaned rats fed a lactose-enriched diet; format: in vivo; conditions: rats on lactose-enriched diet
Protocol: Animal experiments were performed in the accredited Pasteur Institute animal care facility (Institut Pasteur de Lille, France; n° B59-35009) according to governmental guidelines (n° 2010/63/UE; Décret 2013-118) and animal ethics committee approval. Specific pathogen-free male C57BL/6 mice and Sprague-Dawley rats were obtained from Janvier Labs (France). Mice and rats were housed 5 animals/cage and 3 animals/cage, respectively, in a specific pathogen-free facility, in an air-conditioned room with controlled temperature (22±1° C.), humidity (65-70%), and 12 h light/12 h dark cycles. Animals were fed with standard laboratory chow (except when indicated) and were provided with autoclaved tap water ad libitum. Animals were acclimatized for at least 1 week before entering the study.
In addition, the effect of GED on the symptoms associated with lactose intolerance was evaluated in weaned rats fed with a lactose-enriched diet provided by Ssniff Spezialdiäten GmbH (Soest, Germany). Animals were monitored daily, weighed, and stool consistencies were evaluated.
SCFA were extracted and measured as described in […], which is incorporated herein by reference.

COC(Cc1ccc(N)cc1)C(=O)O (stereo not shown) [GED, 3-(4′-aminophenyl)2-methoxypropionic acid]
glucose uptake of Caco-2 cells (Caco-2 cells): did not significantly alter | Fold Lactase RNA (LCT gene; 1 mM): 5.28 fold and 5.29 fold | Fold Lactase RNA (LCT gene; 30 mM): 8.28 fold | LCT mRNA gene expression relative to unstimulated cells, dose-response (LCT mRNA; 0.1 mM, 1 mM, and 30 mM): increased | LCT mRNA expression relative to control (qPCR) (LCT mRNA; 30 mM, 24 hours, normalized to GAPDH): Significant increases; also recorded: induction | concentration of short-chain fatty acids (SCFA) in caecal contents ([1]; day 4): significant decrease | caecum volume compared to untreated rats ([1]; sacrificed at day 4, data not shown): significant decrease
